We go through 20 molecules from patent US20080176862A1, “New Compounds 617” (ASTRAZENECA AB, priority 2006, published 2008).

In this test the target is T1, human β-Secretase (soluble part, AA1-AA460; sBACE-Fc) (Homo sapiens, UniProt P56817).
T1 construct: The soluble part of the human β-Secretase (AA1-AA460) was cloned into the ASP2-Fc10-1-IRES-GFP-neoK mammalian expression vector; made in house
Kind of test: TR-FRET assay. The test is classed as biochemical. The note with it: substrate (Europium)CEVNLDAEFK(Qsy7) 100 nM, pH 4.5, 15 min at RT; read-out: IC50 (nM) in TR-FRET assay.

T1 sequence (P56817 22-460): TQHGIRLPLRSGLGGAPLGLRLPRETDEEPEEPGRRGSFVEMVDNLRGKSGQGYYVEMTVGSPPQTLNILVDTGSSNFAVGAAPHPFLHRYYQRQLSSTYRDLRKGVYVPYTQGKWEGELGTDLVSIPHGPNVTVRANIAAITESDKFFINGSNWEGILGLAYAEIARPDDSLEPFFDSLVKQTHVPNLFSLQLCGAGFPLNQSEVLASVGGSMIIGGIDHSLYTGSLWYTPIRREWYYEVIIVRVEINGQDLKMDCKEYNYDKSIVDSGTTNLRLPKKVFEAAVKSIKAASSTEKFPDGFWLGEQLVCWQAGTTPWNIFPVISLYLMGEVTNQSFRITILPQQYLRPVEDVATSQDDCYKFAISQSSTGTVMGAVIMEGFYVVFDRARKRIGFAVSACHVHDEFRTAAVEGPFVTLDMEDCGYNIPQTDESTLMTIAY

Take `CN1C(=O)C(c2cccc(OS(=O)(=O)c3cn(C)cn3)c2)(c2ccc(F)c(-c3cncnc3)c2)N=C1N` (centres unmarked) [Example 243, 3-[2-Amino-4-(4-fluoro-3-pyrimidin-5-ylphenyl)-1-methyl-5-oxo-4,5-dihydro-1H-imidazol-4-yl]phenyl 1-methyl-1H-imidazole-4-sulfonate]: the IC50 turned out to be 26 nM.

`CCc1ccc(C2(c3ccc(F)c(-c4cncnc4)c3)N=C(N)N(C)C2=O)cc1OS(C)(=O)=O` (centres unmarked) [Example 253, 5-[2-Amino-4-(4-fluoro-3-pyrimidin-5-ylphenyl)-1-methyl-5-oxo-4,5-dihydro-1H-imidazol-4-yl]-2-ethylphenyl methanesulfonate 0.5 acetate]: the IC50 came to 96 nM.

In the case of `CCC(C)(C)c1ccc(S(=O)(=O)Oc2ccc(C3(c4ccc(F)c(-c5cncnc5)c4)N=C(N)N(C)C3=O)cc2)cc1` (centres unmarked) [Example 276, 4-[2-Amino-4-(4-fluoro-3-pyrimidin-5-ylphenyl)-1-methyl-5-oxo-4,5-dihydro-1H-imidazol-4-yl]phenyl 4-(1,1-dimethylpropyl)benzenesulfonate], the IC50 worked out at 183 nM.

With `COc1ccc(OC)c(S(=O)(=O)Oc2ccc(C3(c4ccc(F)c(-c5cncnc5)c4)N=C(N)N(C)C3=O)cc2)c1` (centres unmarked) [Example 277, 4-[2-Amino-4-(4-fluoro-3-pyrimidin-5-ylphenyl)-1-methyl-5-oxo-4,5-dihydro-1H-imidazol-4-yl]phenyl 2,5-dimethoxybenzenesulfonate], the IC50 was 183 nM.

As for `CN1C(=O)C(c2ccc(OS(=O)(=O)c3c(F)cccc3F)cc2)(c2ccc(F)c(-c3cncnc3)c2)N=C1N` (centres unmarked) [Example 278, 4-[2-Amino-4-(4-fluoro-3-pyrimidin-5-ylphenyl)-1-methyl-5-oxo-4,5-dihydro-1H-imidazol-4-yl]phenyl 2,6-difluorobenzenesulfonate], the concentration for half-maximal inhibition (IC50) came to 65 nM.

For the molecule `COc1ccc(S(=O)(=O)Oc2ccc(C3(c4ccc(F)c(-c5cncnc5)c4)N=C(N)N(C)C3=O)cc2)cc1` (centres unmarked) [Example 279, 4-[2-amino-4-(4-fluoro-3-pyrimidin-5-ylphenyl)-1-methyl-5-oxo-4,5-dihydro-1H-imidazol-4-yl]phenyl 4-methoxybenzenesulfonate], the IC50 stood at 23 nM.

`Cc1noc(C)c1S(=O)(=O)Oc1ccc(C2(c3ccc(F)c(-c4cncnc4)c3)N=C(N)N(C)C2=O)cc1` (centres unmarked) [Example 280, 4-[2-amino-4-(4-fluoro-3-pyrimidin-5-ylphenyl)-1-methyl-5-oxo-4,5-dihydro-1H-imidazol-4-yl]phenyl 3,5-dimethylisoxazole-4-sulfonate]: the IC50 was found to be 234 nM.

For the molecule `CCC(C)(C)c1ccc(S(=O)(=O)Oc2ccc(C3(c4ccc(F)c(-c5cccnc5)c4)N=C(N)N(C)C3=O)cc2)cc1` (centres unmarked) [Example 281, 4-[2-Amino-4-(4-fluoro-3-pyridin-3-ylphenyl)-1-methyl-5-oxo-4,5-dihydro-1H-imidazol-4-yl]phenyl 4-(1,1-dimethylpropyl)benzenesulfonate], the half-maximal inhibitory concentration (IC50) was 79 nM.

Take `COc1ccc(OC)c(S(=O)(=O)Oc2ccc(C3(c4ccc(F)c(-c5cccnc5)c4)N=C(N)N(C)C3=O)cc2)c1` (centres unmarked) [Example 282, 4-[2-Amino-4-(4-fluoro-3-pyridin-3-ylphenyl)-1-methyl-5-oxo-4,5-dihydro-1H-imidazol-4-yl]phenyl 2,5-dimethoxybenzenesulfonate0.25 acetate]: the IC50 was found to be 59 nM.

`CN1C(=O)C(c2cccc(OS(=O)(=O)c3ccc4c(c3)CCC4)c2)(c2ccc(F)c(-c3cccnc3)c2)N=C1N` (centres unmarked) [Example 283, 3-[2-Amino-4-(4-fluoro-3-pyridin-3-ylphenyl)-1-methyl-5-oxo-4,5-dihydro-1H-imidazol-4-yl]phenyl indane-5-sulfonate 0.25 acetate]: the half-inhibitory concentration (IC50) was 30 nM.

With `CN1C(=O)C(c2ccc(OS(=O)(=O)c3ccc4c(c3)oc(=O)n4C)cc2)(c2ccc(F)c(-c3cccnc3)c2)N=C1N` (centres unmarked) [Example 284, 4-[2-Amino-4-(4-fluoro-3-pyridin-3-ylphenyl)-1-methyl-5-oxo-4,5-dihydro-1H-imidazol-4-yl]phenyl 3-methyl-2-oxo-2,3-dihydro-1,3-benzoxazole-6-sulfonate 0.5acetate], the IC50 came to 60 nM.

With `Cc1nn(C)c(Cl)c1S(=O)(=O)Oc1ccc(C2(c3ccc(F)c(-c4cccnc4)c3)N=C(N)N(C)C2=O)cc1` (centres unmarked) [Example 285, 4-[2-Amino-4-(4-fluoro-3-pyridin-3-ylphenyl)-1-methyl-5-oxo-4,5-dihydro-1H-imidazol-4-yl]phenyl 5-chloro-1,3-dimethyl-1H-pyrazole-4-sulfonate 0.25 acetate], the IC50 came out at 122 nM.

With `CN1C(=O)C(c2ccc(OS(=O)(=O)c3c(Cl)nc4sccn34)cc2)(c2ccc(F)c(-c3cccnc3)c2)N=C1N` (centres unmarked) [Example 286], the IC50 is 68 nM.

For `CN1C(=O)C(c2ccc(OS(=O)(=O)c3cn(C)cn3)cc2)(c2ccc(F)c(-c3cccnc3)c2)N=C1N` (centres unmarked) [Example 287, 4-[2-Amino-4-(4-fluoro-3-pyridin-3-ylphenyl)-1-methyl-5-oxo-4,5-dihydro-1H-imidazol-4-yl]phenyl 1-methyl-1H-imidazole-4-sulfonate], the IC50 came out at 1020 nM.

On to `COc1ccc(C(C)=O)c(-c2cc(C3(c4ccc(OS(C)(=O)=O)cc4)N=C(N)N(C)C3=O)ccc2F)c1` (centres unmarked) [Example 289, 4-[4-(2′-Acetyl-6-fluoro-5′-methoxybiphenyl-3-yl)-2-amino-1-methyl-5-oxo-4,5-dihydro-1H-imidazol-4-yl]phenyl methanesulfonate], for which the IC50 came to 115 nM.

Consider `COc1cccc(-c2ccnc(C3(c4ccc(OS(C)(=O)=O)cc4)N=C(N)N(C)C3=O)c2)c1` (centres unmarked) [Example 296, 4-{2-Amino-4-[4-(3-methoxyphenyl)pyridin-2-yl]-1-methyl-5-oxo-4,5-dihydro-1H-imidazol-4-yl}phenyl methanesulfonate 0.25 acetate], for which the IC50 amounted to 1350 nM.

Turning to `COc1cccc(-c2ccnc(C3(c4ccc(OS(=O)(=O)C(F)(F)F)cc4)N=C(N)N(C)C3=O)c2)c1` (centres unmarked) [Example 298, 4-{2-Amino-4-[4-(3-methoxyphenyl)pyridin-2-yl]-1-methyl-5-oxo-4,5-dihydro-1H-imidazol-4-yl}phenyl trifluoromethanesulfonate 0.5 acetate], the IC50 was 874 nM.

As for `CN1C(=O)C(c2ccc(OS(C)(=O)=O)cc2)(c2ccc(F)c(C3=CCCCC3)c2)N=C1N` (centres unmarked) [Example 299, 4-[2-Amino-4-(3-cyclohex-1-en-1-yl-4-fluorophenyl)-1-methyl-5-oxo-4,5-dihydro-1H-imidazol-4-yl]phenyl methanesulfonate 0.5 acetate], the IC50 was 330 nM.

`CN1C(=O)C(c2ccc(OS(C)(=O)=O)cc2)(c2ccc(F)c(C3CCCCC3)c2)N=C1N` (centres unmarked) [Example 300, 4-[2-Amino-4-(3-cyclohexyl-4-fluorophenyl)-1-methyl-5-oxo-4,5-dihydro-1H-imidazol-4-yl]phenyl methanesulfonate 0.5 acetate]: the 50% inhibitory concentration (IC50) turned out to be 410 nM.

Take `COc1ccnc(-c2cc(C3(c4ccc(OS(C)(=O)=O)cc4)N=C(N)N(C)C3=O)ccc2F)c1` (centres unmarked) [Example 301, 4-{2-Amino-4-[4-fluoro-3-(4-methoxypyridin-2-yl)phenyl]-1-methyl-5-oxo-4,5-dihydro-1H-imidazol-4-yl}phenyl methanesulfonate 0.75 acetate]: the IC50 worked out at 53 nM.

The IC50 is the point on the concentration scale where inhibition reaches its midpoint.
